This note sets out measurements from US20060069123A1, “Substituted dipiperidine CCR2 antagonists” (priority 2004, published 2006).

By pIC50 is commonly meant the IC50 on a negative log10 scale, so that one unit is a factor of ten. What is called inhibition is the drop in the measured response relative to a control, in per cent.

pIC50: −log10 of the molar value. Like-named read-outs stand apart in the source and are kept apart here.

One test addresses T1, CCR2 (Homo sapiens, UniProt P41597).
T1 sequence (P41597 1-360 isoform P41597-2): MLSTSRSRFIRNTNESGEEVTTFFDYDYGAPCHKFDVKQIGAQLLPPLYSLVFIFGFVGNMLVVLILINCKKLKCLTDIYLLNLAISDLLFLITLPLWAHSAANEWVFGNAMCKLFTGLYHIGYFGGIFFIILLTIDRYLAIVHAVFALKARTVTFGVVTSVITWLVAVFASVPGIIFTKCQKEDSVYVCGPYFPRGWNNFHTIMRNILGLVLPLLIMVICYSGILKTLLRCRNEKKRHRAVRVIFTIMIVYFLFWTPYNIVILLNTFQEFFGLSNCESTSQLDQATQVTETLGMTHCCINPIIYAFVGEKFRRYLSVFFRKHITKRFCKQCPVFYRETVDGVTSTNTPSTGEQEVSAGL
The following applies: for Inhibition of MCP-1 Binding, percent inhibition: test concentration of 25 μM, IC50 not obtained.

Test [1] has as its system THP-1 cells. The following applies: for inhibition at 25 µM: THP-1, read-out: Inhibition of MCP-1 Induced Calcium Ion Influx, percent inhibition.
Test [2] deals with THP-1 cells. As to the kind of experiment: MCP-1 Induced Chemotaxis in THP-1 Cells. It counts as cell-based. Particulars: Homo sapiens, read-out: Inhibition of MCP-1 Induced Chemotaxis IC50. Here is the method:
MCP-1 Induced Chemotaxis in THP-1 Cells
MCP-1 induced chemotaxis was run in a 24-well chemotaxis chamber. MCP-1 (0.01 μg/mL) was added to the lower chamber and 100 μL of THP-1 cells (1×10^7 cell/mL) was added to the top chamber. Varying concentrations of test compound were added to the top and bottom chambers. Cells were allowed to chemotax for 3 hours at 37° C. and 5% CO2. An aliquot of the cells that had migrated to the bottom chamber was taken and counted then compared to vehicle.

Where [3] appears, read: Homo sapiens, THP-1, read-out: Inhibition of MCP-1 Induced Calcium Ion Influx IC50.
Where [4] appears, read: read-out: Inhibition of MCP-1 Induced Calcium Ion Influx IC50, THP-1 cells, 0.2 μM MCP-1, FLIPR.
The mark [5] stands for this setting: THP-1 cells, MCP-1 0.01 μg/mL, 3 hours.

Turning to `CCNC(=O)NCC(C1CCN(C(=O)/C=C/c2ccc(F)c(Br)c2)CC1)N1CCC(c2c[nH]c3ccccc23)CC1` (centres unmarked) [Cpd 233], the pIC50 was 6.18 against CCR2 and 5.74 in the test on THP-1 cells [1] (setting [3]).

As to `O=C(C=Cc1ccc(Cl)c(Cl)c1)N1CCC(C(CO)N2CCC(c3ccc(Cl)cc3)CC2)CC1` (centres unmarked) [Cpd 244, (2E)-1-(4-{1-[4-(4-chloro-phenyl)-piperidin-1-yl]-2-hydroxy-ethyl}-piperidin-1-yl)-3-(3,4-dichloro-phenyl)-propenone], the negative-log IC50 (pIC50) at CCR2 was 6.59; in the test on THP-1 cells [1] (setting [3]) it was 7.10.

For `OCC(C1CCN(C(=S)Nc2ccc(Cl)c(Cl)c2)CC1)N1CCC(c2c[nH]c3ccccc23)CC1` (centres unmarked) [Cpd 122, 4-{2-hydroxy-1-[4-(1H-indol-3-yl)-piperidin-1-yl]-ethyl}-piperidine-1-carbothioic acid (3,4-dichloro-phenyl)-amide], the results for the negative logarithm of the IC50 (pIC50) against CCR2 and in the test with THP-1 cells [1] (setting [3]) were 7.40 and 9.10, respectively.

In turn, `CC(=O)NCC(C1CCN(C(=O)/C=C/c2ccsc2)CC1)N1CCC(c2c[nH]c3ccccc23)CC1` (centres unmarked) [Cpd 219] gave a negative-log IC50 (pIC50) on CCR2 of 6.47. The inhibition at 25 µM in the test with THP-1 cells [1] (Homo sapiens) was determined as 52%.

As for `COc1ccc(C2CCN(C(CO)C3CCN(C(=O)C#Cc4cc(F)c(F)c(F)c4)CC3)CC2)cc1` (centres unmarked) [Cpd 253, 1-(4-{2-hydroxy-1-[4-(4-methoxy-phenyl)-piperidin-1-yl]-ethyl}-piperidin-1-yl)-3-(3,4,5-trifluoro-phenyl)-propynone], on CCR2, the “Inhibition of MCP-1 Binding, percent inhibition” value is on record as 42%. Besides, the pIC50 in the test with THP-1 cells [1] (setting [4]) is 5.41.

`Cc1ccc(NC(=O)N2CCC(C(C(=O)O)N3CCC(c4c[nH]c5ccccc45)CC3)CC2)cc1C` (centres unmarked) [Cpd 100, [1-(3,4-dimethyl-phenylcarbamoyl)-piperidin-4-yl]-[4-(1H-indol-3-yl)-piperidin-1-yl]-acetic acid]: the pIC50 in the test on THP-1 cells [2] (THP-1, 3 h) was 6.03; in the test with THP-1 cells [1] (setting [3]) it was 6.32.

Consider `CC(=O)NCC(C1CCN(C(=O)/C=C/c2cc(F)c(F)c(F)c2)CC1)N1CCC(c2c[nH]c3ccccc23)CC1` (centres unmarked) [Cpd 213, N-(2-[4-(1H-indol-3-yl)-piperidin-1-yl]-2-{1-[(2E)-3-(3,4,5-trifluoro-phenyl)-acryloyl]-piperidin-4-yl}-ethyl)-acetamide], for which the pIC50 with THP-1 cells [2] (setting [5]) is 6.77; with THP-1 cells [1] (setting [3]) it was 7.05.

On to `O=C(O)[C@@H](C1CCN(C(=O)/C=C/c2cc(F)c(F)c(F)c2)CC1)N1CCC(c2c[nH]c3ccccc23)CC1` [Cpd 14], for which the pIC50 is 7.15 with THP-1 cells [2] (THP-1, 3 h) and 5.95 in the test on THP-1 cells [1] (setting [3]).

For the compound `CC(=O)NCC(C1CCN(C(=O)/C=C/c2cccc(C(F)(F)F)c2)CC1)N1CCC(c2c[nH]c3ccccc23)CC1` (centres unmarked) [Cpd 218], the negative-log IC50 (pIC50) was 6.43 on CCR2 and 5.72 with THP-1 cells [1] (setting [3]).

For `O=C(/C=C/c1cccc(C(F)(F)F)c1)N1CCC(C(CO)N2CCC(c3c[nH]c4ccccc34)CC2)CC1` (centres unmarked) [Cpd 119, (2E)-1-(4-{2-hydroxy-1-[4-(1H-indol-3-yl)-piperidin-1-yl]-ethyl}-piperidin-1-yl)-3-(3-trifluoromethyl-phenyl)-propenone], the figures for the negative-log IC50 (pIC50) in the test with THP-1 cells [2] (setting [5]) and in the test with THP-1 cells [1] (setting [3]) were 8.00 and 8.10, respectively.

Consider `COc1ccc(C2CCN(C(CO)C3CCN(C(=O)c4cc5cc(Cl)ccc5o4)CC3)CC2)cc1` (centres unmarked) [Cpd 160, (5-chloro-benzofuran-2-yl)-(4-{2-hydroxy-1-[4-(4-methoxy-phenyl)-piperidin-1-yl]-ethyl}-piperidin-1-yl)-methanone], for which the inhibition at 25 µM is 56% on CCR2 (read-out: Inhibition of MCP-1 Binding, percent inhibition) and 33% in the test with THP-1 cells [1] (Homo sapiens).

Turning to `O=C(/C=C/c1cc(F)cc(F)c1)N1CCC(C(CO)N2CCC(c3nc4cc(Cl)c(Cl)cc4[nH]3)CC2)CC1` (centres unmarked) [Cpd 256, (2E)-1-(4-{1-[4-(5,6-dichloro-1H-benzoimidazol-2-yl)-piperidin-1-yl]-2-hydroxy-ethyl}-piperidin-1-yl)-3-(3,5-difluoro-phenyl)-propenone], at CCR2, the “Inhibition of MCP-1 Binding, percent inhibition” value stood at 25%. Further, the pIC50 in the test on THP-1 cells [1] (setting [4]) is 4.96.

The compound `O=C(/C=C/c1cccc(C(F)(F)F)c1)N1CCC(C(CO)N2CCC(c3ccncc3)CC2)CC1` (centres unmarked) [Cpd 184, (2E)-1-{4-[2-hydroxy-1-(3,4,5,6-tetrahydro-2H-[4,4′]bipyridinyl-1-yl)-ethyl]-piperidin-1-yl}-3-(3-trifluoromethyl-phenyl)-propenone] had a negative-log IC50 (pIC50) on CCR2 of 5.80. For the same compound, in the test with THP-1 cells [1] (Homo sapiens), the inhibition at 25 µM turned out to be 14%.

For `OCC(C1CCN(C(=S)Nc2cccc(C(F)(F)F)c2)CC1)N1CCC(c2c[nH]c3ccccc23)CC1` (centres unmarked) [Cpd 120, 4-{2-hydroxy-1-[4-(1H-indol-3-yl)-piperidin-1-yl]-ethyl}-piperidine-1-carbothioic acid (3-trifluoromethyl-phenyl)-amide], the values for the negative-log IC50 (pIC50) against CCR2 and in the test on THP-1 cells [1] (setting [3]) were 7.10 and 9.00, respectively.

`OCC(C1CCN(C(=S)Nc2cc(F)cc(F)c2)CC1)N1CCC(c2c[nH]c3ccccc23)CC1` (centres unmarked) [Cpd 124, 4-{2-hydroxy-1-[4-(1H-indol-3-yl)-piperidin-1-yl]-ethyl}-piperidine-1-carbothioic acid (3,5-difluoro-phenyl)-amide]: the negative-log IC50 (pIC50) at CCR2 was 6.89; with THP-1 cells [1] (setting [3]), 7.15.

As to `O=C(/C=C/c1ccc(Cl)cc1)N1CCC(C(CO)N2CCC(c3ccc(Cl)cc3)CC2)CC1` (centres unmarked) [Cpd 258, (2E)-3-(4-chloro-phenyl)-1-(4-{1-[4-(4-chloro-phenyl)-piperidin-1-yl]-2-hydroxy-ethyl}-piperidin-1-yl)-propenone], the pIC50 was 6.70 at CCR2 and 5.64 in the test on THP-1 cells [1] (setting [3]).

Regarding `O=CNCC(C1CCN(C(=O)/C=C/c2cc(F)c(F)c(F)c2)CC1)N1CCC(c2c[nH]c3ccccc23)CC1` (centres unmarked) [Cpd 220], the figures for the pIC50 against CCR2 and with THP-1 cells [1] (setting [3]) were 6.36 and 6.02, respectively.

In the case of `NC(=O)C(C1CCN(C(=O)/C=C/c2cc(F)c(F)c(F)c2)CC1)N1CCC(c2c[nH]c3ncccc23)CC1` (centres unmarked) [Cpd 227, 2-[4-(1H-pyrrolo[2,3-b]pyridin-3-yl)-piperidin-1-yl]-2-{1-[(2E)-3-(3,4,5-trifluoro-phenyl)-acryloyl]-piperidin-4-yl}-acetamide], the pIC50 is 6.02 at CCR2 (Inhibition of MCP-1 Binding IC50, 125I labeled MCP-1 binding to CCR2, THP-1 cells) and 6.06 with THP-1 cells [1] (Homo sapiens, THP-1, read-out: Inhibition of MCP-1 Induced Calcium Ion Influx IC50, THP-1 cells, 0.2 μM MCP-1, FLIPR).

Consider `N=C(NC(=O)c1ccc(Cl)c(Cl)c1)N1CCC(C(CO)N2CCC(c3c[nH]c4ccccc34)CC2)CC1` (centres unmarked) [Cpd 128, 3,4-dichloro-N-[(4-{2-hydroxy-1-[4-(1H-indol-3-yl)-piperidin-1-yl]-ethyl}-piperidin-1-yl)-imino-methyl]-benzamide], for which the negative-log IC50 (pIC50) was 6.49 against CCR2 and 7.70 in the test with THP-1 cells [1] (setting [3]).

On to `O=C(/C=C/c1ccc(Cl)c(Cl)c1)N1CCC(C(CCl)N2CCC(c3ccc(Cl)cc3)CC2)CC1` (centres unmarked) [Cpd 245], for which the pIC50 against CCR2 was 5.66; with THP-1 cells [1] (setting [3]) it was 6.40.

As for `O=C(C=Cc1cc(F)c(F)c(F)c1)N1CCC(C(CO)N2CCC(c3ccc(Cl)cc3)CC2)CC1` (centres unmarked) [Cpd 246, (2E)-1-(4-{1-[4-(4-chloro-phenyl)-piperidin-1-yl]-2-hydroxy-ethyl}-piperidin-1-yl)-3-(3,4,5-trifluoro-phenyl)-propenone], the negative logarithm of the IC50 (pIC50) was 7.15 against CCR2 and 7.70 in the test on THP-1 cells [1] (setting [3]).

Consider `O=C(O)C(C1CCN(C(=O)/C=C/c2cccc(C(F)(F)F)c2)CC1)N1CCC(c2c[nH]c3ccccc23)CC1` (centres unmarked) [Cpd 35, [4-(1H-indol-3-yl)-piperidin-1-yl]-{1-[(2E)-3-(3-trifluoromethyl-phenyl)-acryloyl]-piperidin-4-yl}-acetic acid], for which the pIC50 in the test on THP-1 cells [2] (setting [5]) was 7.52; on CCR2, 8.10.

As to `Cc1ccc(NC(=O)N2CCC(C(C(=O)O)N3CCC(c4c[nH]c5ccccc45)CC3)CC2)cc1Cl` (centres unmarked) [Cpd 49, [1-(3-chloro-4-methyl-phenylcarbamoyl)-piperidin-4-yl]-[4-(1H-indol-3-yl)-piperidin-1-yl]-acetic acid], the pIC50 was 8.40 with THP-1 cells [2] (setting [5]) and 7.60 at CCR2.

In the case of `O=C(O)C(C1CCN(C(=O)/C=C/c2cccc([N+](=O)[O-])c2)CC1)N1CCC(c2c[nH]c3ccccc23)CC1` (centres unmarked) [Cpd 92, [4-(1H-indol-3-yl)-piperidin-1-yl]-{1-[(2E)-3-(3-nitro-phenyl)-acryloyl]-piperidin-4-yl}-acetic acid], the negative logarithm of the IC50 (pIC50) with THP-1 cells [2] (setting [5]) is 7.00; on CCR2, 7.40.

For `O=C(O)C(C1CCN(C(=O)/C=C/c2cc(F)cc(F)c2)CC1)N1CCC(c2c[nH]c3cc(F)ccc23)CC1` (centres unmarked) [Cpd 24, {1-[(2E)-3-(3,5-difluoro-phenyl)-acryloyl]-piperidin-4-yl}-[4-(6-fluoro-1H-indol-3-yl)-piperidin-1-yl]-acetic acid], the negative logarithm of the IC50 (pIC50) in the test on THP-1 cells [2] (setting [5]) is 9.15; at CCR2 it was 8.00.
